Values joined by “and” are separate entries in the source; they are usually repeats but may differ in a detail not shown here. Equal values may be shown once.
How the values were obtained:
[1] = tested on: Pseudomonas infected lungs; assay: rat lung infection, gross lung score; type: in vivo; conditions: individual animals, absent=0, mild=1, moderate=2, severe=3
Procedure: A solution form nanocrystalline silver coated dressings (AgHDPE) from Example 1 was prepared by sparging CO2 through 1000 ml of reverse osmosis water using commercial CO2 Soda Syphon Charger. […] At this point, approximately 333 ml of the carbonated water was decanted into a plastic bottle and 333 square inches of nanocrystalline silver-coated net was added to the water. The nanocrystalline silver-coated net and water were placed in 37° C. shaker incubator and shaken at 180 RPM for 30 minutes to elevate the pH to approximately 5.8. The solution was then transferred to a beaker and stirred vigorously for 2 minutes to raise the pH to approximately at 7.3. The dissolution solution was transferred to a commercial nebulizer which was connected to a medical air cylinder with a flow rate of approx. 20 L/min. The outflow of the nebulizer was connected to a animal chamber housing the rats to be dosed. Only the “test” rats (12 randomly assigned animals) received the dosing. The rats received two —½ hour aerosol administrations of the test solution on the day of infection. […]
On each day, six rats of each group of animals were sacrificed. […] Lungs were grossly scored (absent=0, mild=1, moderate=2, and severe=3) based on the degree and involvement of consolidation, hemorrhage, edema and necrosis based upon gross observation.

[2] = tested on: Pseudomonas infected lungs; assay: rat lung infection, histopathology of lung samples; type: in vivo; conditions: for Consol Score / Inflam Score: 0=normal to 4 very severe
Procedure: A solution form nanocrystalline silver coated dressings (AgHDPE) from Example 1 was prepared by sparging CO2 through 1000 ml of reverse osmosis water using commercial CO2 Soda Syphon Charger. […] At this point, approximately 333 ml of the carbonated water was decanted into a plastic bottle and 333 square inches of nanocrystalline silver-coated net was added to the water. The nanocrystalline silver-coated net and water were placed in 37° C. shaker incubator and shaken at 180 RPM for 30 minutes to elevate the pH to approximately 5.8. The solution was then transferred to a beaker and stirred vigorously for 2 minutes to raise the pH to approximately at 7.3. The dissolution solution was transferred to a commercial nebulizer which was connected to a medical air cylinder with a flow rate of approx. 20 L/min. The outflow of the nebulizer was connected to a animal chamber housing the rats to be dosed. Only the “test” rats (12 randomly assigned animals) received the dosing. The rats received two —½ hour aerosol administrations of the test solution on the day of infection. Thereafter, the test rats were dosed 3 times per day for an additional one and a half days.
The bacteria used for infection of these animals were Pseudomonas aeruginosa strain 5588. The dose was previously titrated to ascertain that a dose of up to 10^9 CFU was not lethal for the animals. The bacteria were grown overnight in Tryptic soy broth, washed once in sterile PBS and resuspend in sterile PBS. The final concentration of the inoculum was 4×10^9 CFU/ml.
The rats were anesthetized by inhalation of 2% halothane. A 400 microliter volume of bacterial suspension was intratracheally administered in the bronchi of each rat. This was performed non-surgically on intubated animals.
Histopathology was scored (0-4) based upon the degree of consolidation and inflammation (neutrophil infiltration). The entire right middle lobes of all rats were collected for histopathology. As whole lobes were selected there was no bias toward any sample. All samples were fixed in neutral buffered formalin at the time the lung was removed from the thorax. It was fixed overnight, dehydrated and embedded in was. Sections were obtained which were hydrated and stained with haematoxylin and eosin.
All sections were examined by a veterinary pathologist who was blinded to the treatment groups, until after the samples were scored and comments were provided. (0=normal, 1=slight, 2 moderate, 3 severe, 4 very severe).

[3] = tested on: Pseudomonas aeruginosa; assay: aerosol of silver solutions on streaked agar plates; type: cell-based; set-up: key to Growth at 16 h (0−++++) / Growth at 48 h (0−++++): (0−++++); (0−++++); (0−++++); (0−++++); conditions: for Growth at 16 h (0−++++) / Growth at 48 h (0−++++): aerosol 53 minutes; for Viable 4 h / Viable 16 h: regrowth in Tryptic soy broth
Procedure: (§1) The solutions were in turn placed in an ultrasonic nebulizer that created small droplets containing dissolved and suspended parts of the silver solution. The output from the nebulizer was directed into a chamber made from a stainless steel frame and base. Petri dishes containing Mueller Hinton agar streaked with 4 h old cultures of Pseudomonas aeruginosa and Staphylococcus aureus, were exposed to the silver solution aerosols and the silver nitrate aerosols.
(§2) The method used for the current tests was the mechanical method in the form of an ultrasonic nebulizer. For convenience an ultrasonic humidifier was used. The liquid containing the dissolved and suspended silver from the dressing of Example 1 was placed in the water reservoir of the humidifier. When power was applied to the humidifier aerosol droplets of dissolved and suspended silver were generated and flowed from the output nozzle.
(§3) A test chamber was constructed using a stainless steel frame with a transparent plastic covering. The frame was placed on a stainless steel base plate. The output nozzle from the humidifier was modified so that the aerosol could be directed into the chamber at a height of approximately 30 cm from the base. The plates and other test samples were placed on the stainless steel plate and exposed to the aerosol for a prescribed length of time.
(§4) Petri dishes, containing Mueller Hinton agar, were streaked with 4 h old cultures of Pseudomonas aeruginosa or Staphylococcus aureus. The plates were then weighed and their exposed outer surfaces were coated with Parafilm to prevent condensation from occurring on these surfaces. These plates were placed in the aerosol chamber uncovered. The ultrasonic nebulizer was then started and run for 53 minutes. The plates were then removed from the chamber, the plastic was removed and the dishes re-weighed so that the amount of moisture loss/gain could be determined.
(§5) The plates were then placed in a 35° C. incubator for 16 h. After incubation the pattern and amount of growth was assessed on the plates for both organisms.
(§6) Three of the six plates made for each organism were tested to determine if the antimicrobial effect was cidal or static in nature. This was accomplished by rinsing or placing a piece of the clear section of agar in the Petri dish plates into Tryptic soy broth in a test tube and incubating for 4 h or 16 h. If the medium turned turbid in 4 h it would indicate that the antimicrobial affect was bacteriostatic in nature. If the organisms took more than 16 h to grow, as indicated by turbidity, it was considered an indication that both static and cidal effects occurred. If no growth occurred the effect was bactericidal.
as §1, with “the solution of nanocrystalline noble metal-containing material.” for “the silver solution.”, “Pseudomonas aerugiona” for “Pseudomonas aeruginosa”, “Staphylococcus aureus” for “Staphylococcus aureus,”, “to nanocrystalline noble metal” for “to the silver solution”
(§7) The method used to create an aerosol for these tests was the mechanical method in the form of an ultrasonic nebulizer. For convenience, an ultrasonic humidifier was used. The liquid containing the dissolved and suspended antimicrobial metal-containing material with atomic disorder was placed in the water reservoir of the humidifier. When power was applied to the humidifier, aerosol droplets of dissolved and suspended antimicrobial metal-containing material with atomic disorder were generated and flowed from the output nozzle.
(§8) A test chamber was constructed using a stainless steel frame with a transparent plastic covering. The frame was placed on a stainless steel plate.

[4] = tested on: Staphylococcus aureus; assay: as above; type: cell-based; set-up: key to Growth at 16 h (0−++++) / Growth at 48 h (0−++++): (0−++++); (0−++++); (0−++++); (0−++++); conditions: for Growth at 16 h (0−++++) / Growth at 48 h (0−++++): aerosol 53 minutes
Procedure: as §1, §2, §3, §4, §5, §6
as §1, with “the solution of nanocrystalline noble metal-containing material.” for “the silver solution.”, “Pseudomonas aerugiona” for “Pseudomonas aeruginosa”, “Staphylococcus aureus” for “Staphylococcus aureus,”, “to nanocrystalline noble metal” for “to the silver solution”
as §7, §8

[5] = tested on: Pseudomonas aeruginosa strain 5588 infected lungs; assay: nebulized forms of silver in rats, gross lung score; type: in vivo, rat; conditions: after 24 h, nebulized solutions (400 ppm; colloidal silver 20 ppm)
Procedure: A solution was prepared by sparging CO2 through 1000 ml of reverse osmosis water using commercial CO2 Soda Syphon Charger. This process results in the pH of the water dropping to about 4. At this point, approximately 333 ml of the carbonated water was decanted into a plastic bottle and 333 square inches of nanocrystalline silver-coated net was added to the water. The nanocrystalline silver-coated net and water were placed in 37° C. shaker incubator and shaken at 180 RPM for 30 minutes to elevate the pH to approximately 5.8. The solution was then transferred to a beaker and stirred vigorously for 2 minutes to raise the pH to approximately at 7.3.
A colloidal silver solution (20 ppm) in was obtained from a commercial source.
The dissolution solutions were transferred to commercial nebulizers which were connected to a Medical air cylinder with a flow rate of approx. 20 L/min. The outflows of the nebulizers were connected to an animal chamber housing the rats to be dosed. All rats (40 randomly assigned animals) received the dosing. The rats received two —½ hour aerosol administrations of the test solutions on the day of infection. […]
All rats of each group of animals were sacrificed after 24 h. […] Lungs were grossly scored (absent=0, mild=1, moderate=2, and severe=3) based on the degree of involvement of consolidation, hemorrhage, edema and necrosis based upon gross observation.

[6] = Solutions 1 and 3: Ag 85 (dressing) / 99 (AgNO3) μg/ml
[7] = Solutions 1 and 3: Ag 85 / 99 μg/ml
[8] = Solutions 2 and 4: Ag 370 (dressing) / 300 (AgNO3) μg/ml
[9] = Solutions 2 and 4: Ag 370 / 300 μg/ml
[10] = Solutions 1 and 3: Ag 85 / 99 μg/ml, regrowth in Tryptic soy broth

## NC[C@H]1O[C@H](O[C@H]2[C@H](O)[C@@H](O[C@H]3O[C@H](CO)[C@@H](O)[C@H](N)[C@H]3O)[C@H](N)C[C@@H]2N)[C@H](N)C[C@@H]1O [Tobramycin]
[1]; 24 h
  gross lung score: 2 (3×) and 3 (2×) and 1
[1]; 48 h
  gross lung score: 1 (4×) and 2 and Dead
[2]; Time 24
  Comments (histopathology): Severe infiltration of PMNs into interstitial spaces.
  Consol Score: 3
  Inflam Score: 3
[2]; Time 48
  Comments (histopathology): Severe infiltration of PMNs into interstitial spaces.
  Involvement of sample: in affected areas. Involvement of 70% of sample.
  Consol Score: 3
  Inflam Score: 3

## O=[N+]([O-])[O-].[Ag+] [AgNO3, silver nitrate]
[3]; [6]
  Growth at 16 h (0−++++): 0
[3]; [7]
  Growth at 48 h (0−++++): 0
  Viable 4 h: No
  Viable 16 h: No
[3]; Solutions 1 and 3: Ag 85 / 99 μg/ml, listed as AgNo3
  Viable 16 h: Yes
[3]; [8]
  Growth at 16 h (0−++++): 0
[3]; [9]
  Growth at 48 h (0−++++): 0
  Viable 4 h: No
  Viable 16 h: No
[4]; [6]
  Growth at 16 h (0−++++): 0
[4]; Solutions 1 and 3: Ag 85 (dressing) / 99 (AgNO3) μg/ml, listed as AgNo3
  Growth at 16 h (0−++++): ++++
[4]; [7]
  Growth at 48 h (0−++++): ++++
[4]; [10]
  Viable 4 h: No
  Viable 16 h: Yes
[4]; Solutions 1 and 3: Ag 85 / 99 μg/ml, regrowth in Tryptic soy broth, listed as AgNo3
  Viable 4 h: Yes
[4]; [8]
  Growth at 16 h (0−++++): 0
[4]; [9]
  Growth at 48 h (0−++++): +++
[4]; Solutions 2 and 4: Ag 370 / 300 μg/ml, regrowth in Tryptic soy broth
  Viable 4 h: No
[5]
  gross score of lungs: moderately to severely inflamed

Reference: patent publication US7427416B2, “Methods of treating conditions using metal-containing materials” (Nucryst Pharmaceuticals Corp., priority 2000, dated 2008)
